From ChEMBL document CHEMBL1201862, “PubChem BioAssay data set” (2004)
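Exposure lasted 48 hours, with cells grown in 96-well plates and compounds tested at five concentrations. The concentration for 50% growth inhibition is given as GI50.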 Active and inactive are the calls of the source. Cut-off read from the data, not from the text of the source: active = GI50 up to about 1.1 µM and inactive = higher.

Experiments:
Assay in all cases: NCI tumour cell line growth inhibition, 48 h
CAKI-1 = tested on: CAKI-1
EKVX = tested on: EKVX
HCT-15 = tested on: HCT-15
IGROV-1 = tested on: IGROV-1
K562 = tested on: K562
LOX IMVI = tested on: LOX IMVI
M14 = tested on: M14
MCF7 = tested on: MCF7
MDA-MB-435 = tested on: MDA-MB-435
MDA-N = tested on: MDA-N
Malme-3M = tested on: Malme-3M
NCI-H460 = tested on: NCI-H460
NCI-H522 = tested on: NCI-H522
OVCAR-5 = tested on: OVCAR-5
PC-3 = tested on: PC-3
RXF 393 = tested on: RXF 393
SW-620 = tested on: SW-620
U-251 = tested on: U-251
UO-31 = tested on: UO-31
CCRF-CEM = tested on: CCRF-CEM

SMILES	GI50 (CAKI-1)	GI50 (EKVX)	GI50 (HCT-15) [µM]	GI50 (IGROV-1)	GI50 (K562)	GI50 (LOX IMVI)	GI50 (M14)	GI50 (MCF7)	GI50 (MDA-MB-435)	GI50 (MDA-N)	GI50 (Malme-3M)	GI50 (NCI-H460)	GI50 (NCI-H522)	GI50 (OVCAR-5)	GI50 (PC-3)	GI50 (RXF 393)	GI50 (SW-620)	GI50 (U-251)	GI50 (UO-31)	GI50 (CCRF-CEM)
CC(=O)OC(=C(C#N)C#N)c1nccnc1C(=O)O	> 100 µM (inactive)	> 100 µM (inactive)	> 100	> 100 µM (inactive)	> 100 µM (inactive)	> 100 µM (inactive)	> 100 µM (inactive)	> 100 µM (inactive)	> 100 µM (inactive)	> 100 µM (inactive)	> 100 µM (inactive)	> 100 µM (inactive)	> 100 µM (inactive)	> 100 µM (inactive)	> 100 µM (inactive)	> 100 µM (inactive)	> 100 µM (inactive)	> 100 µM (inactive)	> 100 µM (inactive)	
N#CC(C#N)=C(N)/C(C#N)=C/c1ccc2ccccc2n1	22.6 µM (inactive)	> 100 µM (inactive)	28.8	16.9 µM (inactive)	32.6 µM (inactive)	19.3 µM (inactive)	33.7 µM (inactive)	30.7 µM (inactive)	30.5 µM (inactive)	32.7 µM (inactive)	96.8 µM (inactive)	85.7 µM (inactive)		> 100 µM (inactive)	26.2 µM (inactive)	20 µM (inactive)	> 10 µM (inactive)	> 10 µM (inactive)	15.5 µM (inactive)	24.1 µM (inactive)
COc1ccccc1NC(=S)Nc1cc(C)cc(C)n1	> 100 µM (inactive)	> 100 µM (inactive)	> 100	> 100 µM (inactive)	> 100 µM (inactive)	> 100 µM (inactive)	> 100 µM (inactive)	> 100 µM (inactive)	> 100 µM (inactive)	> 100 µM (inactive)	> 100 µM (inactive)	> 100 µM (inactive)		> 100 µM (inactive)	> 89.9 µM (inactive)	> 100 µM (inactive)	> 100 µM (inactive)	> 100 µM (inactive)	> 100 µM (inactive)	> 100 µM (inactive)
CC(C)CNP(=O)(NCC(C)C)Oc1ccc(CC(NC(=O)OCc2ccccc2)C(=O)OCc2ccccc2)cc1 (stereo not drawn)	> 100 µM (inactive)	34.8 µM (inactive)	26.9	35.4 µM (inactive)	20 µM (inactive)	16.1 µM (inactive)	24.3 µM (inactive)	11.1 µM (inactive)	10 µM (inactive)	18.8 µM (inactive)	19.1 µM (inactive)	18.1 µM (inactive)	13.4 µM (inactive)	> 100 µM (inactive)	17.1 µM (inactive)	18.5 µM (inactive)	20.4 µM (inactive)	16.5 µM (inactive)	20.3 µM (inactive)	4.99 µM (inactive)
Cn1c2ccc([N+](=O)[O-])cc2c(=O)c2c(O)cc(O)cc21	43 µM (inactive)	5.94 µM (inactive)	60.3	15.5 µM (inactive)	> 100 µM (inactive)	37.1 µM (inactive)	60.4 µM (inactive)	13.7 µM (inactive)	> 100 µM (inactive)	> 100 µM (inactive)	18.6 µM (inactive)	24.9 µM (inactive)	7.74 µM (inactive)	> 100 µM (inactive)	> 100 µM (inactive)	25.7 µM (inactive)	68.2 µM (inactive)	15.7 µM (inactive)	59 µM (inactive)	> 100 µM (inactive)
CCOc1ccc(/N=N/C2C(=O)N(C(=O)CC(=O)Nc3ccc(Cl)cc3)N=C2C)cc1 (stereo not drawn)	> 100 µM (inactive)	> 100 µM (inactive)		> 100 µM (inactive)		> 100 µM (inactive)	> 100 µM (inactive)	> 100 µM (inactive)	> 100 µM (inactive)	> 100 µM (inactive)	> 100 µM (inactive)	> 100 µM (inactive)	> 100 µM (inactive)	> 100 µM (inactive)	> 100 µM (inactive)	> 100 µM (inactive)	> 100 µM (inactive)	> 100 µM (inactive)	> 100 µM (inactive)	> 100 µM (inactive)
CC(=O)NC1C(OCc2ccccc2)OC(CO)C(O)C1OCC(=O)NC(C(=O)NC(CCC(=O)NCCCCCC(=O)Nc1ccc2c(c1)CN1C(=O)c3ccccc3C1=N2)C(N)=O)C(C)C (stereo not drawn)	28.8 µM (inactive)	31.6 µM (inactive)	52.2	20.3 µM (inactive)	36 µM (inactive)	34.4 µM (inactive)	40.6 µM (inactive)	16.9 µM (inactive)	31.6 µM (inactive)	62.7 µM (inactive)	23.8 µM (inactive)	20.8 µM (inactive)		> 100 µM (inactive)	28.5 µM (inactive)	21.8 µM (inactive)	50.6 µM (inactive)	18.8 µM (inactive)	47.4 µM (inactive)	> 100 µM (inactive)
CCN1c2cc(Br)cc3[nH]c(=O)n(c23)CCC1C (stereo not drawn)	11.6 µM (inactive)	1.43 µM (inactive)	14.5	13.9 µM (inactive)	5.58 µM (inactive)	11.5 µM (inactive)	17.2 µM (inactive)	19.7 µM (inactive)	4.18 µM (inactive)	4.89 µM (inactive)	21.5 µM (inactive)	17 µM (inactive)		20.2 µM (inactive)	17.2 µM (inactive)	11.6 µM (inactive)	5.48 µM (inactive)	14.8 µM (inactive)	14 µM (inactive)	12 µM (inactive)
CCC(C(=O)c1cccs1)C(O)(C(F)(F)F)C(F)(F)F (stereo not drawn)	> 100 µM (inactive)	> 100 µM (inactive)	> 100	> 100 µM (inactive)	> 100 µM (inactive)	> 100 µM (inactive)	> 100 µM (inactive)	> 100 µM (inactive)	> 100 µM (inactive)	> 100 µM (inactive)	> 100 µM (inactive)	> 100 µM (inactive)	> 100 µM (inactive)	> 100 µM (inactive)	> 100 µM (inactive)	> 100 µM (inactive)	> 100 µM (inactive)	> 100 µM (inactive)	> 100 µM (inactive)	
Cc1cccc(NC(=O)CCl)c1	> 10 µM (inactive)	> 10 µM (inactive)	> 10	> 10 µM (inactive)	6.11 µM (inactive)	6.19 µM (inactive)	8.77 µM (inactive)	> 10 µM (inactive)	9.02 µM (inactive)	> 10 µM (inactive)	3.93 µM (inactive)	> 10 µM (inactive)	1.95 µM (inactive)	> 10 µM (inactive)	> 10 µM (inactive)	8.49 µM (inactive)	> 10 µM (inactive)	2.24 µM (inactive)		2.52 µM (inactive)
CC(=O)OCC(=O)[C@@]12OC(C)(C)O[C@@H]1C[C@H]1[C@@H]3CC=C4C[C@@H](O)CC[C@]4(C)[C@H]3CC[C@@]12C	> 100 µM (inactive)	29.6 µM (inactive)	> 100	50.5 µM (inactive)	> 100 µM (inactive)	> 100 µM (inactive)	> 100 µM (inactive)	> 100 µM (inactive)	> 100 µM (inactive)	> 100 µM (inactive)	> 100 µM (inactive)		57.9 µM (inactive)	> 100 µM (inactive)	> 100 µM (inactive)	19.9 µM (inactive)	> 100 µM (inactive)	58.6 µM (inactive)	> 100 µM (inactive)	> 100 µM (inactive)
CCc1n[nH]c(=O)n1N1C(=O)C2CCCCC2C1=O (stereo not drawn)	> 100 µM (inactive)	> 100 µM (inactive)	> 100	> 100 µM (inactive)	> 100 µM (inactive)	> 100 µM (inactive)	> 100 µM (inactive)	> 100 µM (inactive)	> 100 µM (inactive)	> 100 µM (inactive)	> 100 µM (inactive)		> 100 µM (inactive)	> 100 µM (inactive)	> 100 µM (inactive)	> 100 µM (inactive)	> 100 µM (inactive)	> 100 µM (inactive)	> 100 µM (inactive)	> 100 µM (inactive)
CC[C@]12C=CCN3CC[C@@]4(c5cc(Br)c(OC)cc5N(C)[C@H]4[C@@](O)(C(=O)NC(Cc4c[nH]c5ccccc45)C(=O)OC)[C@@H]1O)[C@@H]32 (stereo partly drawn)	86.1 µM (inactive)	18.4 µM (inactive)	5.74	19.4 µM (inactive)	5.37 µM (inactive)	4.6 µM (inactive)	20.5 µM (inactive)	12.3 µM (inactive)	26.2 µM (inactive)	23.3 µM (inactive)	11.6 µM (inactive)		8.83 µM (inactive)	71.4 µM (inactive)	8.2 µM (inactive)	19.1 µM (inactive)	89.7 µM (inactive)	5.04 µM (inactive)	20.8 µM (inactive)	5.62 µM (inactive)
O[C@@]1(c2cccs2)c2cccc(Cl)c2[C@](O)(c2cccs2)c2cccc(Cl)c21	24.4 µM (inactive)	16.8 µM (inactive)	21.2	16.3 µM (inactive)	25.5 µM (inactive)	16.4 µM (inactive)	15.4 µM (inactive)	18.5 µM (inactive)	17.2 µM (inactive)	16.8 µM (inactive)	17.8 µM (inactive)	16.9 µM (inactive)	18.2 µM (inactive)	16.2 µM (inactive)	19.1 µM (inactive)	16.3 µM (inactive)	17.3 µM (inactive)	16.8 µM (inactive)	46.7 µM (inactive)	33.3 µM (inactive)
